# In patent publication US20140213576A1, “NOVEL COMPOUND USEFUL FOR THE TREATMENT OF DEGENERATIVE AND INFLAMMATORY DISEASES” (GALAPAGOS NV, priority 2013, published 2014):
# Where “and” joins values, the source holds several entries; their conditions need not be identical. Identical values can stand only once.
# Key:
# [1] = target: T1, Recombinant human JAK1 (catalytic domain, amino acids 866-1154) (Homo sapiens, UniProt P23458); experiment: JAK1 Ulight-JAK1 peptide assay; type: biochemical
# T1 construct: Recombinant human JAK1 (catalytic domain, amino acids 866-1154; catalog number PV4774); purchased Invitrogen PV4774
# Description: Recombinant human JAK1 (catalytic domain, amino acids 866-1154; catalog number PV4774) was purchased from Invitrogen. 1 ng of JAK1 was incubated with 20 nM Ulight-JAK1(tyr1023) peptide (Perkin Elmer catalog number TRF0121) in kinase reaction buffer (25 mM MOPS pH6.8, 0.01% Brij-35, 5 mM MgCl2, 2 mM DTT, 7 μM ATP) with or without 4 μL containing test compound or vehicle (DMSO, 1% final concentration), in a total volume of 20 μL, in a white 384 Opti plate (Perkin Elmer, catalog number 6007290). After 60 min at room temperature, reactions were stopped by adding 20 μL/well of detection mixture (1× detection buffer (Perkin Elmer, catalog number CR97-100C), 0.5 nM Europium-anti-phosphotyrosine (PT66) (Perkin Elmer, catalog number AD0068), 10 mM EDTA). Readout is performed using the Envision with excitation at 320 nm and measuring emission at 615 nm (Perkin Elmer). Kinase activity was calculated by subtracting relative fluorescence units (RFU) obtained in the presence of a positive control inhibitor (10 μM staurosporine) from RFU obtained in the presence of vehicle. The ability of a test compound to inhibit this activity was determined as:
# Percentage inhibition=((RFU determined for sample with test compound present−RFU determined for sample with positive control inhibitor) divided by (RFU determined in the presence of vehicle−RFU determined for sample with positive control inhibitor))*100.
# Dose dilution series were prepared for the compounds enabling the testing of dose-response effects in the JAK1 assay and the calculation of the IC50 for the compound. Each compound is routinely tested at concentration of 20 μM followed by a ⅕ serial dilution, 10 points in a final concentration of 1% DMSO. […] The data are expressed as the average IC50 from the assays±standard error of the mean.
# [2] = test system: Collagen Induced Arthritis (CIA); experiment: Rat CIA model; type: in vivo; settings: p.o., therapeutic dosing day 16 to day 30
# Description: Completed Freund's adjuvant (CFA) and incomplete Freund's adjuvant (IFA) were purchased from Difco. Bovine collagen type II (CII), lipopolysaccharide (LPS), and Enbrel was obtained from Chondrex (Isle d'Abeau, France); Sigma (P4252, L'Isle d'Abeau, France), […] (25 mg injectable syringe, France) Acros Organics (Palo Alto, Calif.), respectively. All other reagents used were of reagent grade and all solvents were of analytical grade. Dark Agouti rats (male, 7-8 weeks old) were obtained from Harlan Laboratories (Maison-Alfort, France). Rats were kept on a 12 h light/dark cycle (0700-1900). Temperature was maintained at 22° C., and food and water were provided ad libitum. […] A compound of interest was typically tested at 5 doses, e.g. 1, 2, 3, 5, and 10 mg/kg, p.o. Arthritis is scored according to the method of Khachigian 2006, Lin et al 2007 and Nishida et al. 2004). […] To permit the meta-analysis of multiple studies the clinical score values were normalised as follows: AUC of clinical score (AUC score): The area under the curve (AUC) from day 1 to day 14 was calculated for each individual rat. The AUC of each animal was divided by the average AUC obtained for the vehicle in the study from which the data on that animal was obtained and multiplied by 100 (i.e. the AUC was expressed as a percentage of the average vehicle AUC per study). […]
# JAK2 = target: T2, JAK2 (Homo sapiens, UniProt O60674); experiment: JAK2 Ki determination assay (kinase tracer 236 binding); settings: binding experiment, 25 nM kinase tracer 236; read-out: Ki against JAK2
# T2 construct: Recombinant human JAK2 catalytic domain (amino acids 808-1132; catalog number PV4210); purchased Invitrogen PV4210
# Description: JAK2 (Invitrogen, PV4210) was used at a final concentration of 5 nM. The binding experiment was performed in 50 mM Hepes pH 7.5, 0.01% Brij-35, 10 mM MgCl2, 1 mM EGTA using 25 nM kinase tracer 236 (Invitrogen, PV5592) and 2 nM Eu-anti-GST (Invitrogen, PV5594) with varying compound concentrations. Detection of tracer was performed according to the manufacturer's procedure.
# T1 sequence (P23458 866-1154): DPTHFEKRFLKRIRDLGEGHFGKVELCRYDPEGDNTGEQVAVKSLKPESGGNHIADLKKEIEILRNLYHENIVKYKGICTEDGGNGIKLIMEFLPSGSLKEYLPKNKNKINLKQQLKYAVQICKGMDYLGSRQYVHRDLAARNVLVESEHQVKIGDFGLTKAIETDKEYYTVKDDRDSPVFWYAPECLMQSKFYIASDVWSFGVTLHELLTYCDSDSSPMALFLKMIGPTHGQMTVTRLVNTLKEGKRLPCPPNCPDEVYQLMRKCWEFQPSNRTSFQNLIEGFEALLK
# T2 sequence (O60674 808-1132): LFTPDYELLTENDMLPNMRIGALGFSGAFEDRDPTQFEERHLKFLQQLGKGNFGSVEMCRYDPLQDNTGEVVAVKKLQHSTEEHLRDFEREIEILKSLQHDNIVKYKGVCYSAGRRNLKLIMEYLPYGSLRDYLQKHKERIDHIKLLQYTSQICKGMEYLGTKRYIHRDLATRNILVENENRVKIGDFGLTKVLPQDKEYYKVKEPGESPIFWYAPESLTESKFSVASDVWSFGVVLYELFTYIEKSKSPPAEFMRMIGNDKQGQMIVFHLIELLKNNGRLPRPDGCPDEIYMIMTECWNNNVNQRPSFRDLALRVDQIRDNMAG
smiles,measurement,setting,value
"CCc1cc(C2CN(S(C)(=O)=O)C2)ncc1N(C)c1cc2c(cn1)ncn2C [Compound 1, [4-Ethyl-6-(1-methanesulfonyl-azetidin-3-yl)-pyridin-3-yl]-methyl-(1-methyl-1H-imidazo[4,5-d]pyridin-6-yl)-amine]","selectivity for JAK1 vs the other JAK family members (JAK2, JAK3, and TYK2)",[1],at least 10 fold
same,IC50,"[1]; Ulight-JAK1(tyr1023) peptide, 7 μM ATP, individual determinations, read-out: IC50 against JAK1",6.59 nM and 7.68 nM and 12.9 nM and 4.47 nM and 10.2 nM and 9.11 nM and 5.42 nM and 8.37 nM and 9.43 nM and 6.94 nM
same,JAK1 selectivity vs JAK2,[1]; vs JAK2,> 15 fold
same,JAK1 selectivity vs JAK3,[1]; vs JAK3,> 70 fold
same,JAK1 selectivity vs TYK2,[1]; vs TYK2,> 80 fold
same,dose from which statistically significant efficacy was displayed,[2],≥ 3 mg/kg
same,Ki,JAK2,62.6 nM
